For one experiment, the system named is CALU6 (Lung). The experiment in a line: In vitro combination study for selected compounds, additional cell lines. The format is cell-based. The conditions noted are these: drug combined with Compound 1. The procedure:
(§1) In vitro anti-proliferative effects of selected compounds were tested in additional cell lines, including ovarian cancer (SKOV3) and pancreatic cancer (MIA-PACA-2) cell lines.

The next experiment has as its system H-1650 (Lung). The experiment is described as above. The format is cell-based. The conditions noted are these: drug combined with Compound 1. The procedure:
as §1

Experiment [1] deals with ovarian cancer (SKOV3) cell line. The experiment is described as above. The conditions noted are these: drug combined with Compound 1. The format is cell-based. Here is the method: as §1
Experiment [2] relates to pancreatic cancer (MIA-PACA-2) cell line. Described as above. The format is cell-based. The conditions noted are these: drug combined with Compound 1. Here is the method: as §1
Experiment [3] deals with PHTXM-79Es human primary esophagus cancer xenografts. The experiment in a line: In vivo combination study, Patient Derived Xenograft. Set-up: species or system mouse. The conditions noted are these: for Result (combination with Compound 1, tumor growth): Compound 1 60 mg/kg once daily Day 1-21; for antitumor activity: combined with Compound 1, PHTXM-79Es human primary esophagus cancer xenografts, FIG. 5B. Here is the method: (§2) To investigate in vivo antitumor activity of Compound 1 in combination with other agents, tests using Cell Derived Xenograft (CDX), Patient Derived Xenograft (PDX) and Syngeneic mouse tumor isograft model were conducted. Cells or Patient Derived Tumors were inoculated by one method of the following two methods (Method A and B) as shown Table 7.
(§3) Method A; Cells were maintained in either immune deficient nude mice or immune competent mice by subcutaneous inoculation of tumor cells at various concentrations into respected mice. Method B: Patient Derived Tumor s were maintained in nude mice by subcutaneous inoculation of tumor pieces (approx. 2×2×2 mm) into nude mice. Mice with tumor size of approximately 50 mm^3 (e.g., 40-75 mm^3) for syngeneic mouse studies or 200 mm^3 (e.g., 110-270 mm^3) for xenograft studies were randomly assigned to dose groups on the day (Day 0) before start date of dosing.
(§4) Compound 1 (crystalline form I) was suspended in 0.5 w/v % methylcellulose and administered orally to mice. Antibodies which administered in the experiment were described in Table 8.
(§5) Tumor size was measured by caliper and tumor volume was estimated using the equation V=(LW^2)/2, where L and W are tumor length and width, respectively and reported in cubic millimeters.
(§6) These values were compared across treatment groups to assess whether the differences in the trends over time were statistically significant. To compare pairs of treatment groups, the following mixed-effects linear regression model was fit to the data using the maximum likelihood method:
(§7) For synergy analyses, the observed differences in the log tumor values were used to calculate AUC values for each animal. In instances when an animal in a treatment group was removed from the study, the last observed tumor value was carried forward through all subsequent time points. The AUC for the control, or vehicle, group was calculated using the predicted values from the pairwise models described above. We defined a measure of synergy as follows:
(§8) where Ak and Bk are the k^th animal in the individual treatment groups and ABk is the k^th animal in combination treatment group. AUCcd is the model-predicted AUC for the control group and was treated as a constant with no variability. The standard error of the synergy score was calculated as the square root of the sum of squared standard errors across groups A, B, and AB. The degrees of freedom were estimated using the Welch-Satterthwaite equation. A hypothesis test was performed to determine if the synergy score differed from 0. P values were calculated by dividing the synergy score by its standard error and tested against a t-distribution (two-tailed) with the above-calculated degrees of freedom.
(§9) The effect was classified into four different categories. It was considered synergistic if the synergy score was less than 0 and additive if the synergy score wasn't statistically different from 0. If the synergy score was greater than zero, but the mean AUC for the combination was lower than the lowest mean AUC among the two single agent treatments, then the combination was sub-additive. If the synergy score was greater than zero, and the mean AUC for the combination was greater than the mean AUC for at least one of the single agent treatments, then the combination was antagonistic.

In a further experiment the test system is PHTX-11C. The experiment can be described thus: In vivo combination study, xenograft. The arrangement: species or system mouse. The conditions noted are these: PHTX-11C (270 mm^3).
The test system of the next experiment is PHTX-09C (Colorectal). The experiment in a line: In vivo combination study, Patient Derived Xenograft. The arrangement: species or system mouse. The conditions noted are these: PHTX-09C (155 mm^3). (Xenograft models place foreign cells or tissue in a host animal.)
Experiment [4] has as its system PHTXM-35Es human primary esophagus cancer xenografts. Described as above. The arrangement: species or system mouse. The conditions noted are these: PHTXM-35Es (240 mm^3), Compound 1 60 mg/kg once daily Day 1-21. The procedure:
as §2, §3, §4, §5, §6, §7, §8, §9

The subject of another experiment is PHTXM-90Es (Esophagus). The experiment is described as above. The arrangement: species or system mouse. The conditions noted are these: PHTXM-90Es (185 mm^3), Compound 1 60 mg/kg once daily Day 1-21. Here is the method:
as §2, §3, §4, §5, §6, §7, §8, §9

Experiment [5] concerns PHTX-249Pa human primary pancreatic xenografts. The description is as above. Set-up: species or system mouse. The conditions noted are these: PHTX-249Pa (195 mm^3). The procedure:
as §2, §3, §4, §5, §6, §7, §8, §9

In a further experiment the test system is PHTXM-97Pa (Pancreatic). The experiment is described as above. Set-up: species or system mouse. The conditions noted are these: PHTXM-97Pa (180 mm^3). The procedure:
as §2, §3, §4, §5, §6, §7, §8, §9

Another experiment has as its system A549 cancer cells. The experiment can be described thus: In vitro combination study with Compound 1, Cell Titer-Glo (ATP) cell viability, 72 h. It counts as cell-based. (In general: Cellular ATP, detected with luciferase, serves as a proxy for viable cell number.)
For a further experiment, the system named is COLO205 cancer cells. The experiment is described as above. It counts as cell-based, human. The conditions noted are these: DNA damaging agent combined with Compound 1; 72 h.
Another experiment deals with H460 cancer cells. The experiment is described as above. The format is cell-based. The conditions noted are these: DNA damaging agent combined with Compound 1; 72 h.
The next experiment concerns HCT116 cancer cells. Described as above. It counts as cell-based. The conditions noted are these: DNA damaging agent combined with Compound 1; 72 h.
A further experiment deals with SW48 cancer cells. Described as above. The conditions noted are these: DNA damaging agent combined with Compound 1; 72 h. It counts as cell-based.
The subject of another experiment is SW620 cancer cells. The experiment is described as above. The conditions noted are these: DNA damaging agent combined with Compound 1; 72 h. It counts as cell-based.
Where [6] appears, read: Compound 1 40 mg/kg once daily Day 1-21, drug 15 mg/kg intravenously Days 1-3, 8-10, 15-17.
Where [7] appears, read: Compound 1 40 mg/kg once daily Day 1-21, drug 25 mg/kg intravenously Days 1-3, 8-10, 15-17.
The mark [8] stands for this setting: Compound 1 60 mg/kg once daily Day 1-21, drug 15 mg/kg intravenously Days 1-3, 8-10, 15-17.
The mark [9] stands for this setting: Compound 1 60 mg/kg once daily Day 1-21, drug 25 mg/kg intravenously Days 1-3, 8-10, 15-17.
Setting [10] is: drug 25 mg/kg intravenously Days 1-3, 8-10, 15-17.
[11] abbreviates: Compound 1 20 mg/kg once daily Day 1-21, drug 5 mg/kg intraperitoneally Days 1,5,9,13,17,21.
The mark [12] stands for this setting: Compound 1 20 mg/kg once daily Day 1-21, drug 10 mg/kg intraperitoneally Days 1,5,9,13,17,21.
Setting [13] is: Compound 1 40 mg/kg once daily Day 1-21, drug 5 mg/kg intraperitoneally Days 1,5,9,13,17,21.
The mark [14] stands for this setting: Compound 1 40 mg/kg once daily Day 1-21, drug 10 mg/kg intraperitoneally Days 1,5,9,13,17,21.
Where [15] appears, read: drug 10 mg/kg intraperitoneally Days 1,5,9,13,17,21.

The structures appear in SMILES notation. Structures can show the parent of a compound that is named as a salt. Where two headings read alike, the source gives them in different places.
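Throughout, for Call, anti-proliferative effect of combination with Compound 1, A549: Ten-by-ten dose matrices of the two agents in duplicate, compounds added 16 h post-plating, activity relative to DMSO vehicle wells, call reflects synergy evaluation from luminescence.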
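Throughout, for Call, anti-proliferative effect of combination with Compound 1, COLO205: Ten-by-ten dose matrices of both agents in duplicate plus single-agent dilutions, luminescent ATP read-out, percent activity per well relative to DMSO vehicle wells, synergy call from these matrices.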
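Throughout, for Call, anti-proliferative effect of combination with Compound 1, H460: Ten-by-ten dose matrices of both drugs alongside single-agent dilutions, luminescence read 72 hours after compound addition, percent activity per well versus vehicle (DMSO) plate controls.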
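Throughout, for Call, anti-proliferative effect of combination with Compound 1, HCT116: combination call from 10×10 dose matrices in duplicate, graded by synergy, with percent activity per well relative to DMSO vehicle controls on the same plate.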
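Throughout, for Call, anti-proliferative effect of combination with Compound 1, SW620: Ten-by-ten dose matrices of both drugs in 384-well plates, luminescent ATP read-out, synergy evaluated against single-agent and DMSO vehicle controls.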

Description for COLO205 cancer cells: (§10) Each combination pair was evaluated in an individual 384-well plate which contained variable doses of both compounds as single agents, as well as two, ten-by-ten matrices (in duplicate) that contained mixtures of the two test compounds. In brief, compounds were added to the cell test plates 16 hours after cell plating and then assessed for viability 72 hours later. Continuous cultures of tumor cells were maintained under standard cell culturing conditions (i.e. in a humidified chamber set at 37° C., containing atmosphere 5% carbon dioxide). […] Seventy-two hours after compound addition, ATP levels were measured to assess cell viability. Plating densities were chosen to ensure optimal linear growth over the 72 hour period.
(§11) Compound dilution and compound delivery to the assay plates were done on HighRes Robotic System (HighRes Biosolutions, Woburn, Mass., USA) with Echo™ Liquid Handler (Labcyte, Sunnyvale, Calif., USA). […] Next, these were used for compound transfer into cell assay plates. All wells were back-filled to give a constant percentage of DMSO.
(§12) The final DMSO concentration was held constant in all wells across the plate and was maintained at less than 0.5%. […] Cells treated with vehicle (DMSO) in two rows, or single compound serial dilutions in one plate columns/row served as the untreated control and single compound controls, respectively.
(§13) Compound activity in A549, COLO205, H460, HCT116, SW48, SW620 cancer cell lines was assessed using Cell Titer-Glo® (Promega [Madison, Wis., USA]). After 72 hours incubation, the plates were treated as per package insert protocol for the Promega Luminescence ATP Detection Systems. Briefly, 25 μL of cell lysis/substrate solution (provided in kit form) was added to each well and the plate was incubated at room temperature for 10 minutes. Luminescence was measured using a PHERAstar multi-label counter (BMG Labtech [Ortenberg, Germany]) or LEADseeker (GE Healthcare Life Sciences [Piscataway, N.J., USA]).
(§14) Numerical luminescence values were analyzed to generate EC50 curves and evaluate synergy. Raw Data reader files were uploaded along with automation workfiles that defined the plate and well contents. Percent activities were calculated for each well versus plate controls.
(§15) Each plate representing a single drug combination was analyzed separately. First, the viability measurements were normalized by scaling the data so that the median of the negative controls was 0 and the median of the positive controls was 100.
(§16) For the combination analysis, a response surface model was used to describe the relationship between the normalized viability and the drug concentrations. The data were fit to the model by minimizing the residual sum of squares. Based on the fitted response surface, plots of constant viability, called isobolograms, were produced.
(§17) The Combination Index and Nonlinear Blending were used as measures of drug synergy. To calculate Combination Index the 50% isobologram (which is the dose contour that has 50% viability) was used. […] A standard procedure was created to produce a call in order to characterize the viability effects for each combination (synergy, additivity, subadditivity, or antagonism). If the Combination Index existed then these measures were used to make the call.
Description for HCT116 cancer cells: as §10, §11, §12, §13, §14, §15, §16, §17
Description for SW48 cancer cells: as §10
Compound dilution and compound delivery to the assay plates were done on HighRes Robotic System (HighRes Biosolutions, Woburn, Mass., USA) with Echo™ Liquid Handler (Labcyte, Sunnyvale, Calif., USA). First, 384-well low dead volume (LDV) plates containing DMSO (Appendix B) and 10 mM compound stock solutions were used to create the required intermediate compound dilution plates. Next, these were used for compound transfer into cell assay plates. All wells were back-filled to give a constant percentage of DMSO.
as §12, §13, §14, §15, §16, §17

Take `O=c1[nH]cc(F)c(=O)[nH]1` [Fluorouracil]: the “In vitro combination effect with Compound 1, Lung CALU6” value in the experiment on CALU6 (Lung) was “Synergy”. In the experiment on H-1650 (Lung), the “In vitro combination effect with Compound 1, Lung H-1650” value is given as “Additive”. Further, the “In vitro combination effect with Compound 1, Ovary SKOV3” value in experiment [1] was “Additive”. The “In vitro combination effect with Compound 1, Pancreas MIA-PACA-2” value in experiment [2] was “Additive”. The “Result (combination with Compound 1, tumor growth)” value (“Result” for short) in [3] (PHTXM-79Es (160 mm^3), drug 25 mg/kg intravenously Days 1-3, 8-10, 15-17) was “Synergistic”; in the experiment on PHTX-11C (setting [6]), “Additive”; with PHTX-11C (setting [7]), “Additive”; in the experiment on PHTX-11C (setting [8]) it was “Additive”; in the experiment with PHTX-11C (setting [9]), “subadditive”; with PHTX-09C (Colorectal) (setting [6]) it was “Additive”. Further, the “Result” value in the experiment with PHTX-09C (Colorectal) (setting [7]) was “Additive”; in the experiment on PHTX-09C (Colorectal) (setting [8]) it was “Additive”; with PHTX-09C (Colorectal) (setting [9]), “subadditive”; in experiment [4] (setting [10]) it was “Additive”; in the experiment with PHTXM-90Es (Esophagus) (setting [10]) it was “Additive”. For the same compound, the antitumor activity entry in [3] was “strong antitumor activity compared to either single treatment alone”.
Take `CCc1c2c(nc3ccc(OC(=O)N4CCC(N5CCCCC5)CC4)cc13)-c1cc3c(c(=O)n1C2)COC(=O)[C@]3(O)CC` [Irinotecan (CPT-11), Irinotecan]: the “Result” value in experiment [3] (PHTXM-79Es (160 mm^3) FIG. 5B, drug 10 mg/kg intraperitoneally Days 1,5,9,13,17,21) was “Additive”; in experiment [5] (setting [11]), “Additive”; in experiment [5] (setting [12]), “Additive”; in experiment [5] (setting [13]), “Additive”; in [5] (setting [14]), “Additive”; in experiment [4] (setting [15]) it was “Additive”. The “Result” value is on record as “Synergistic” with PHTXM-90Es (Esophagus) (setting [15]); “Additive” in the experiment with PHTXM-97Pa (Pancreatic) (setting [11]); “Additive” in the experiment with PHTXM-97Pa (Pancreatic) (setting [12]); “subadditive” in the experiment on PHTXM-97Pa (Pancreatic) (setting [13]); “subadditive” in the experiment with PHTXM-97Pa (Pancreatic) (setting [14]). Moreover, the antitumor activity entry in experiment [3] is listed as “strong antitumor activity compared to either single treatment alone”.
For `CCc1c2c(nc3ccc(O)cc13)-c1cc3c(c(=O)n1C2)COC(=O)[C@]3(O)CC` [SN-38], in the experiment with A549 cancer cells, the “Call, anti-proliferative effect of combination with Compound 1, A549” value is “Synergy (key: Inconclusive: Any; Additivity: 0.7 to 1.3; Synergy: 0 to 0.7; Subadditivity: 1.3 to 2; Antagonism: >2)”. The “Call, anti-proliferative effect of combination with Compound 1, COLO205” value in the experiment on COLO205 cancer cells was “Additivity (0.7 to 1.3)”. The “Call, anti-proliferative effect of combination with Compound 1, H460” value in the experiment on H460 cancer cells is “Synergy (0 to 0.7)”. Also, the “Call, anti-proliferative effect of combination with Compound 1, HCT116” value in the experiment with HCT116 cancer cells is reported as “Synergy (0 to 0.7)”. The “Call, anti-proliferative effect of combination with Compound 1, SW48” value in the experiment with SW48 cancer cells is “Additivity (0.7 to 1.3)”. For the same compound, the “Call, anti-proliferative effect of combination with Compound 1, SW620” value in the experiment with SW620 cancer cells was “Synergy (0 to 0.7)”. Further, in the experiment on H-1650 (Lung), the “In vitro combination effect with Compound 1, Lung H-1650” value is “Additive”. Also, in experiment [1], the “In vitro combination effect with Compound 1, Ovary SKOV3” value is given as “Additive”. In experiment [2], the “In vitro combination effect with Compound 1, Pancreas MIA-PACA-2” value is “Additive”.
For `CC[C@@]1(O)C(=O)OCc2c1cc1n(c2=O)Cc2cc3c(CN(C)C)c(O)ccc3nc2-1` [Topotecan hydrochloride], the “Call, anti-proliferative effect of combination with Compound 1, A549” value in the experiment with A549 cancer cells (DNA damaging agent combined with Compound 1, 72 h) is given as “Synergy (0 to 0.7)”. Besides, the “Call, anti-proliferative effect of combination with Compound 1, COLO205” value in the experiment with COLO205 cancer cells is reported as “Synergy (0 to 0.7)”. Further, the “Call, anti-proliferative effect of combination with Compound 1, H460” value in the experiment with H460 cancer cells is “Synergy (0 to 0.7)”. For the same compound, the “Call, anti-proliferative effect of combination with Compound 1, HCT116” value in the experiment on HCT116 cancer cells is recorded as “Synergy (0 to 0.7)”. For the same compound, in the experiment on SW48 cancer cells, the “Call, anti-proliferative effect of combination with Compound 1, SW48” value is listed as “Additivity (0.7 to 1.3)”. For the same compound, the “Call, anti-proliferative effect of combination with Compound 1, SW620” value with SW620 cancer cells is given as “Synergy (0 to 0.7)”. The “In vitro combination effect with Compound 1, Lung H-1650” value in the experiment with H-1650 (Lung) is listed as “Additive”. For the same compound, the “In vitro combination effect with Compound 1, Ovary SKOV3” value in [1] was “Additive”. The “In vitro combination effect with Compound 1, Pancreas MIA-PACA-2” value in experiment [2] is given as “Additive”.

Source of the values: US20220323443A1, “COMBINATION THERAPY FOR CANCER TREATMENT” (TAKEDA PHARMACEUTICAL COMPANY LIMITED, priority 2019, published 2022).
